Results reported in EP1228077B1, “RUTHENIUM (II) COMPLEXES WITH HIGH ANTITUMORAL AND ANTIMETASTATIC ACTIVITIES” (priority 1999, dated 2001).

Legend:
Format in all cases: in vivo
[1] = Example 8: systemic toxicity (body weight) in tumour-bearing mice
Procedure: Four groups each composed of 6 CBA/Lac kin female […] weighing 23±3 g. were inoculated on day 0 with tumour cells according to the protocol described in the previous examples. From day 12 to day 17, after tumour implantation, the four groups of mice were treated intraperitoneally using a sterile insulin syringe, respectively with: • Group 1: Control: 10 ml/kg body weight/die of sterile and pyrogen-free physiological solution; • Group 2: ASC: 6.69 mg/kg body weight/die of ascorbic acid in sterile and pyrogen-free physiological solution; • Group 3: RUT: 35 mg/kg body weight/die of Ruthenium (III) complex, (lmH)[trans-RuCl4(Me2SO)(Im)] in sterile and pyrogen-free physiological solution; • Group 4: RUT+ASC: 35 mg/kg body weight/die of Ruthenium (III) complex (lmH)[trans-RuCl4(Me2SO)(lm)] and 6.69 mg/kg body weight/ die of ascorbic acid in sterile and pyrogen-free physiological saline solution.
The reducing agent (ascorbic acid) was used in a equivalent ratio of 1 with the Ruthenium (III) complex. The redox reaction was immediate.
The administration took place after analytical control of the complete reduction of the Ruthenium (III) complex to Ruthenium (II).
On day 18 from tumour implantation, the primary tumour and the spleen were removed and weighed, as described previously.
The experiment confirms the lower toxicity of the Ruthenium (II) complexes of the invention (group 4) with respect to the prior art Ruthenium (III) complexes (group 3).

MCa mammary carcinoma [2] = assay: Example 4: prevention of lung metastases in mice with MCa mammary carcinoma; conditions: lung metastases on day 21, i.p. treatment day 12 to 17; for Metastases Number: CBA/Lac female mice, 6 per group
Procedure: Six groups composed of 6 CBA\Lac kin female mice, weighing 23±3 g were inoculated on day 0 with 10^6 viable cells (as determined with Trypan blue-exclusion test) of MCa mammary carcinoma, in 0.05 ml volume of Dulbecco's buffered at pH 7.4 calcium and magnesium-free saline physiological solution (D-PBS), by intramuscular injection with a sterile insulin syringe. The tumour cells derive from donors of the same strain, were transplanted with an insulin sterile syringe accordingly to the same procedure two weeks before. The tumour cells in PBS suspension were prepared by mechanical mincing of the tumour mass obtained from donor mice and by further removing tissue and cell debris by filtration through a double layer of sterile gauze and further centrifugation at 250xg for 10 minutes. The kin animals were derived from a colony obtained from Chester Beatthy, London (UK) and grown in the University of Trieste pound according to the procedures for the rearing of kin animals. The MCa mammary carcinoma tumour line derives from a stock, kept in liquid nitrogen, of tumour cells obtained originally from Rudjer Boskovic Institute, Zagreb (HR).
From day 12 to day 17 after tumour implantation, the six groups of mice were treated intraperitoneally using an insulin sterile syringe, respectively with: • Group 1. Control: […] body weight/die of sterile pyrogen-free physiological solution; • Group 2. ASC: 6.69 mg/kg body weight/die of ascorbic acid in sterile and pyrogen-free physiological solution; • Group 3. CYST: 12 mg/kg body weight/die of […] in sterile and pyrogen-free physiological solution; • Group 4. RUT: 35 mg/kg body weight/die of Ruthenium (III) complex, (lmH)[trans-RuCl4(Me2SO)(Im)] in pyrogen-free and sterile physiological solution; • Group 5. RUT-ASC: 35 mg/kg body weight/die of the Ruthenium (III) complex, (ImH)[trans-RuCl4(Me2SO)(Im)] and 12 mg/kg body weight/die of cysteine in sterile and pyrogen-free physiological saline solution; • Group 6. RUT-CYST: 35 mg/kg body weight/die of the Ruthenium (III) complex, (ImH)[trans-RuCl4(Me2SO)(Im)] and 12 mg/kg body weight/die of cysteine in sterile and pyrogen-free physiological saline solution.
The reducing agents ascorbic acid and cysteine were used in a equivalent ratio corresponding to 1 with the Ruthenium (III) complex. The redox reaction was immediate. The administration took place after analytical control of the complete reduction of the Ruthenium (III) complex to Ruthenium (II).
(§1) On day 17 from tumour implantation, the growth of the primary tumour was evaluated and the tumor surgically removed after general anaesthesia of the animals with ketamine. The tumor size was determined by measuring both orthogonal axes of the tumour by means of a caliber, the weight in grams of the rotation solid developed around these axes was measured, considering the tumour density equal to 1 and using the formula. (π/6).a^2.b, wherein a was the minor and b the major axis.
On day 21 from tumour implantation, the mice were sacrificed by cervical dislocation and lung metastases were analyzed. The lungs removed from the animal immediately after sacrifice, were divided in single lobes, which were then examined immediately with a low-magnification microscope equipped with an ocular-grid for the measurement of the metastases sizes from which the two orthogonal a and b axes (with a ≤b) are identified. The metastases were then grouped on the basis of their dimensions and the metastatic tumour weight was calculated as the sum of the weight of each single metastasis, each of them regarded as a rotation solid developed around the above mentioned axes, and with a volume calculated by the same formula used for the primary tumour. The experimental data obtained were therefore processed by appropriate statistical tests. The results are reported in Table 1 wherein the number and weight of lung metastases obtained in each group of animal are shown.

MCa mammary carcinoma [3] = assay: Example 5: prevention of lung metastases in mice with MCa mammary carcinoma; conditions: lung metastases on day 23, i.p. treatment day 10 to 15; for Metastases Number: CBA/Lac female mice, 7 per group
Procedure: In a further experiment similar to the previous one, six groups of animals, each of them composed of 7 CBA/Lac kin female mice, weighing 23±3 g were inoculated on day 0 with cells of MCa mammary carcinoma, according to the protocol described in the previous example. From day 10 to day 15 after tumour implantation, the 6 groups of mice were treated intraperitoneally using a sterile insulin syringe, respectively with: • Group 1: […] RUT: 35 mg/kg body weight/die of Ruthenium (III) complex, (ImH)[trans-RuCl4(Me2SO)(Im)] in sterile and pyrogen-free physiological saline solution; • Group 5: […] The reducing agents glutathione and cysteine were used in an equivalent ratio of 1 with the Ruthenium (III) complex. The redox reaction was immediate. The administration took place after the analytical control of total reduction of the Ruthenium (III) to Ruthenium (II) complexes. On day 16 from tumour implantation, the growth of the primary tumour as described in the previous example was evaluated. On day 23 from tumour implantation, the mice were sacrificed and the metastases were evaluated as in previous example. The experimental data obtained were processed by appropriate statistical tests and reported in Table 2, wherein the number and weight of lung metastases obtained in the treated group of animals are also reported.

[4] = Example 7: systemic toxicity (body weight, spleen weight) in tumour-bearing mice
Procedure: Four groups, each of them composed of 7 CBA/Lac-kin female mice weighing 23±3 g on day 0 were inoculated with MCa mammary carcinoma cells according to the protocol described in the previous examples. From day 11 to day 16 after tumour implantation, the four groups of mice were treated intraperitoneally using a sterile insulin syringe, respectively with: • Group 1: Control: 10 ml/kg body weight/die of sterile and pyrogen-free physiological solution; • Group 2: CYST: 2 mg/kg body weight/die of cysteine in sterile and pyrogen-free physiological solution; • Group 3: RUT: 35 mg/kg body weight/die of Ruthenium (III) complex (lmH)[trans-RuCl4(Me2SO)(Im)] in sterile and pyrogen-free physiological solution; • Group 4: RUT-CYST: 35 mg/kg body weight/die of Ruthenium (III) complex , (ImH)[trans-RuCl4(Me2SO)(lm)] and 12 mg/kg body weight/die of cysteine in sterile and pyrogen-free physiological solution.
The reducing agent (cysteine) was used in a equivalent ratio of 1with the Ruthenium (III) complex. The redox reaction was immmediate.
The administration took place after analytical control of the complete reduction of the Ruthenium (III) to Ruthenium (II) complexes.
(§2) On day 17 from tumour implantation, the mice were sacrificed, the primary tumour and the spleen were removed and analysed as in the previous example. […]
The data reported in the Table 4 indicate how the body weight and the spleen weight, which are indicators of the systemic toxicity of the treatment, turned out to be more similar to the control (group 1) when the mice were treated with the Ruthenium (II) complexes according to the invention (group 4) than when treated with Ruthenium (III) (group 3) only.

MCa mammary carcinoma [5] = assay: Example 7: primary tumour weight variation in mice with MCa mammary carcinoma; conditions: weight variation with respect to the controls, day 11 to day 17; i.p. treatment day 11 to 16
Procedure: as §1
Four groups, each of them composed of 7 CBA/Lac-kin female mice weighing 23±3 g on day 0 were inoculated with MCa mammary carcinoma cells according to the protocol described in the previous examples. […]
as §2

[6] = tested on: Lewis lung carcinoma (LLC); assay: Example 6: lung metastases in BD2F1 mice with Lewis lung carcinoma; conditions: day 20; treatment day 8 to 13
Procedure: Groups of 7 BD2F1 female mice were inoculated by means of intramuscular injection on day 0 with cells of Lewis lung carcinoma (LLC). From day 8 to day 13 the animals were treated with the Ruthenium (III) complex [trans-RuCl4(DMSO)(lm)](lmH), (compound of formula II) and with the Ruthenium (II) complex, trans-RuCl2(DMSO)4, both belonging to the state of the art. On day 20 from tumour implantation, the mice were sacrificed and the metastases evaluated. All the procedures of the experiments were carried out as reported in the previous examples.

[7] = day 17, after i.p. treatment day 11 to 16

Structure (SMILES) | %T/C (metastases weight in the treated animals/metastases weight in the controls) (MCa mammary carcinoma [2]) [%] | Metastases Weight (MCa mammary carcinoma [2]) [mg] | a.p./a.t (number of animals devoid of metastases/ total number of animals) (MCa mammary carcinoma [2]) | Metastases Number (MCa mammary carcinoma [2]) | %T/C (metastases weight in the treated animals/metastases weight in the controls) (MCa mammary carcinoma [3]) [%] | Metastases Weight (MCa mammary carcinoma [3]) [mg] | Metastases Number (MCa mammary carcinoma [3]) | Lung Metastases Number %T/C [6] [%] | Lung Metastases Weight [6] | Lung Metastases Weight %T/C [6] [%] | also measured
O=C1O[C@H]([C@@H](O)CO)C(O)=C1O [ASC, ascorbic acid] | 86 | 81.5 ± 14 | 0/6 | 18.3± 8.6 | – | – | – | – | – | – | Body weight (day 12) ([1]; day 12, start of i.p. treatment): 27.6±0.7; Body weight (day 18) ([1]; day 18, after i.p. treatment day 12 to 17): 26.7±1.2
N[C@@H](CS)C(=O)O [CYST, cysteine] | 103 | 94.6 ± 26 | 0/6 | 35.0± 13.5 | 76 | 141.2 ± 15.1 | 30.5±7.2 | – | – | – | % variation (body weight) ([4]; body weight variation with respect to the controls, day 11 to 17): -2.5%; Body weight (day 11) ([4]; day 11, start of i.p. treatment): 30.5±0.6; Body Weight (day 17) [4, 7]: 28.8±0.6; Spleen weight (day 17) [4, 7]: 297± 3.3
N[C@@H](CCC(=O)N[C@@H](CS)C(=O)NCC(=O)O)C(=O)O [GLU, glutathione] | – | – | – | – | 75 | 138.8 ± 20.5 | 47.0±3.9 | – | – | – | –
CS(C)=O.[Cl-].[Cl-].[Cl-].[Cl-].[Ru+3].c1c[nH+]c[nH]1.c1c[nH]cn1 [RUT, (ImH)[trans-RuCl4(Me2SO)(Im)]] | 16 | 15.2 ± 2.3 | 0/6 | 7.0± 1.9 | 45 | 83.6 ± 4.5 | 27.5±3.0 | 38 | 47.6±11.5 | 25 | % Variation of the primary tumour (MCa mammary carcinoma [5]): -30.3%; Body weight (day 12) ([1]; mouse, in vivo, ip): 27.0±0.9; Body weight (day 18) ([1]; mouse, in vivo, ip): 23.3±0.8; Body Weight (day 17) ([4]; mouse, in vivo, ip): 26.5±0.8; Body weight (day 11) ([4]; mouse, in vivo, ip): 30.0±1.0; Spleen weight (day 17) ([4]; mouse, in vivo, ip): 197± 8.8
C[SH](C)(=O)[Ru]([Cl])([Cl])([SH](C)(C)=O)([SH](C)(C)=O)[SH](C)(C)=O [trans-RuCl2(DMSO)4] | – | – | – | – | – | – | – | 82 | 85.5±19.3 | 45 | –
